This note sets out measurements from patent US20160195530A1, “METHOD FOR ANALYSIS OF NKT CELL FUNCTION” (RIKEN, priority 2005, published 2016).

One test deals with human NKT cells. Nature of the test: IFN-γ ELISA after cocultivation of isolated human NKT cells with α-GalCer-pulsed autologous or heterologous DCs. The format is cell-based. The following applies: α-GalCer-pulsed heterologous (mouse) DCs versus autologous DCs. As to the method: In order to clarify that a human NKT cell can be specifically activated by a heterologous DC, human NKT cells were isolated, cocultivated with α-GalCer-pulsed autologous or heterologous DCs, after which the culture supernatants were collected, and cytokine production was measured by the ELISA method.
After growth of the NKT cell with α-GalCer and IL-2, the cells were sorted using FACS Vantage with anti-invariant NKT antibodies, and cocultivated with α-GalCer-pulsed heterologous or autologous DCs, after which IFN-γ was quantified by the ELISA method.
On the technique in general: An ELISA detects its analyte on a solid surface through an enzyme-linked reagent.

Another test concerns NKT cell line. Nature of the test: Antigen-specific growth of NKT cell line cocultivated with heterologous DCs. The format is cell-based, human. The following applies: heterologous DCs in presence of antigen, 10 days, serially diluted NKT cell line mixed with NKT cell-removed PBMCs. As for the experimental part:
Mature DCs were stimulated for maturation, as well as pulsed using α-GalCer (100 ng/ml) for 48 hr in the 5th-7th days of the cultivation. 1×10^4 DCs pulsed with α-GalCer were added to the each well of 1×10^5 Mφ-depleted PBMCs in the presence of recombinant IL-2 (100 U/ml). 10-14 Days later, Va24^+ NKT cells were stained with FITC-labeled anti-Vα24 mAb, and selected using anti-FITC magnetic beads. Va24^+ NKT cells were maintained as a cell line in CM in the presence of 100 U/ml IL-2, and restimulated by PBMCs that had been irradiated in the presence of α-GalCer.
After serial dilution of the NKT cell line that was prepared by the method described in Example 4, the diluted solutions were mixed with NKT cell-removed PBMCs, cocultivated with heterologous DCs in the presence of an antigen (α-GalCel), and the growth rates were calculated 10 days later.

Test [1] deals with NKT cell contained in peripheral blood of a healthy subject. Nature of the test: Cocultivation of Mφ-depleted PBMC with α-GalCer-pulsed mature mouse DC, flow cytometry and intracellular staining. It is filed as cell-based, human. Particulars: healthy subjects; α-GalCer-pulsed mature mouse DCs, IL-2 100 U/ml, 9 days. As for the experimental part:
At first, mouse DCs were induced from mouse bone marrow cells. Mouse bone marrow cells were cultivated in 5% FCS-containing RPMI-1640 in the presence of mouse GM-CSF under 5% CO2 at 37° C. for 5 days.
Subsequently, immature mouse DCs were maturated. To the culture obtained as mentioned above (containing immature mouse DCs), α-GalCer (100 ng/ml) was added at the 6th day, and the culture was cultivated for 40 hr. For an acieration of the maturation, 100 ng/ml LPS was added at the 7th day, and the culture was cultivated for 16 hr. Thus obtained α-GalCer-pulsed mature mouse DCs were recovered at the 8th day.
PBMCs were obtained by blood drawing from healthy subjects, and Mφ-depleted PBMCs were obtained by removing macrophages (Mφ) using an anti-CD14 antibody (simultaneously using a CD11c antibody as necessary) and magnetic beads.
α-GalCer-pulsed mature mouse DCs (5×10^4 cells/ml) obtained by the above-mentioned (1) and Mφ-depleted PBMCs (5×10^5 cells/ml) obtained by the above-mentioned (2) were cultivated in 10% FCS-containing RPMI-1640 in the presence of recombinant human IL-2 (100 U/ml) under 5% CO2 at 37° C. for 9 days.
After cultivation in accordance with the protocol of the above-mentioned (1)-(3), the number of NKT cells and the frequency of NKT cells having an cytokine production ability were measured by flow cytometry and intracellular staining. […]
In general terms: In flow cytometry, cells or beads pass a laser one at a time.

For test [2], the system named is NKT cells in peripheral blood. The test can be described thus: ELISPOT assay of IFN-γ-producing cells with α-GalCer-loaded mature DCs (autologous, allogeneic, heterologous). The format is cell-based, human. Particulars: α-GalCer 100 ng/ml. The text has this:
In order to study whether activation of NKT cells in peripheral blood varies by DCs of different derivation, NKT cell activation in an autologous, allogeneic or heterologous system was studied by an ELISPOT assay with IFN-γ productivity as an index.
Human DCs were obtained by purifying CD14% monocytes with magnetic beads (Miltenyi Biotec Inc. Auburn, Calif.) and cultivating them for 7 days in the presence of 500 U/ml recombinant human IL-4 and 1,000 U/ml recombinant human GM-CSF. α-GalCer (100 ng/ml) or the same amount of vehicle (DMSO, Sigma) was loaded onto DCs at the 5th day, given maturation stimuli (10 ng/ml IL-1β, 10 ng/ml TNFα, and 1 μg/ml PGE2) at the 6th day, and recovered at the 7th day.
Bone marrow precursor cells were grown into DCs induced from mouse bone marrow in 5% FCS-containing RPMI-1640 using mouse GM-CSF. At the 6th day, α-GalCer (100 ng/ml) was added to immature bone marrow DCs, and cultivation was performed for 40 hr. For maturation of DCs, 100 ng/ml LPS was added at the 7th day, and cultivation was performed for 16 hr. Matured α-GalCer-pulsed DCs were recovered at the 8th day.
For detection of IFN-γ-secreting cells, 96-well filtration plates (Millipore, Bedford, Mass.) were coated with mouse anti-human IFN-γ (10 μg/ml, Mabtech, Sweden). PBMCs (1×10^6) were incubated in RPMI containing 5% human AB serum or 10% calf serum (complete medium or CM; GIBCO) in either presence or absence of α-GalCer (100 ng/ml). PMA (10 μg/ml) and ionomycin were used as positive controls. […] Spot-forming cells (SFC) were quantified with a microscope. When the reactivity was not less than 10 SFC/well and not less than twice the background (without αGalCer), the assay was scored as positive. In order to compare naive NKT cell activation ability of different APCs (autologous, allogeneic and heterologous DC) in cultures, Mφ-depleted cells (1×10^6/well) were cultivated with […] α-GalCer or vehicle-loaded APCs (1×10^5/well) in CM for 16 hr. α-GalCer-dependent IFN-γ-producing cells were measured by an ELISPOT assay.

Turning to `CCCCCCCCCCCCCCCCCCCCCCCCCC(=O)N[C@@H](CO[C@H]1O[C@H](CO)[C@H](O)[C@H](O)[C@H]1O)[C@H](O)[C@H](O)CCCCCCCCCCCCCC` [α-GalCer, 25,35,4R-1-0(α-galactopyranosyl)-2(N-hexacosanoylamino)-1,3,4-octadecanetriol], the “IFN-γ production (ELISA, culture supernatant)” value in the test on human NKT cells is listed as “IFN-γ production was confirmed in the heterologous system, though it was lower than in the autologous system”. The “antigen-specific growth of human NKT cells” value in the test on NKT cell line is on record as “antigen-specifically grown by heterologous DCs”. Moreover, the “cytokine production (frequency of NKT cells having cytokine production ability, IFN-γ)” value in test [1] is given as “confirmed”. Besides, the “α-GalCer-dependent growth of human NKT cells (number of NKT cells)” value in test [1] is recorded as “confirmed”. Also, the “α-GalCer-dependent NKT cell activation (IFN-γ productivity, ELISPOT)” value in test [2] (high frequency NKT cell-containing group (% NKT>0.05%), autologous and heterologous DCs) was “activation of NKT cell was confirmed”; in test [2] (low frequency NKT cell-containing group (% NKT<0.01%)), “NKT cell activation was not confirmed”; in test [2] (middle frequency NKT cell-containing group (0.01%<% NKT<0.05%)) it was “activation of NKT cell was confirmed in an α-GalCer dependent manner, but the production amount was found to be decreased”.
